{"source": "patent US7569554B2", "about": "“Synergistic treatment of cancer using immunomers in conjunction with therapeutic agents” (Idera Pharmaceuticals, Inc., priority 2003, dated 2009)", "key": {"[1]": {"test_system": "CT26.WT", "test": "Peritoneal disseminated CT26.WT tumor, survival", "type": "in vivo, mouse", "conditions": "peritoneal administration, 1 mg/kg; FIG. 17B", "description": "(§1) For peritoneal disseminated tumor model, 3×10^5 CT26.WT or CT26.CL25 cells and 5×10^4 B16.F0 cells were injected i.p to BALB/c or C57BL/6 mice respectively. […] Mice were checked daily for tumor growth and for survival. Each dose group had 6 to 10 mice."}, "[2]": {"test_system": "CT26.CL25 colon tumor", "test": "Subcutaneous CT26.CL25 colon tumor in BALB/c mice", "type": "in vivo, mouse", "conditions": "day 24, compared with non-CpG DNA treated mice; 1 mg/kg peritumoral", "description": "(§2) For subcutaneous solid tumor models, 10^6 CT26.CL25 cells/mouse or 5×10^5 B16.F0 cells/mouse in 100 μl of PBS were implanted into BALB/c or C57BL/6 mice in the lower right flank. The tumor size reached to 50 to 200 mg on day 6 for CT26.CL25 and on day 8 for B16.F0 post tumor inoculation. The tumor bearing mice were then treated with peritumoral injection of IMO compounds or non-CpG DNA control at a dose of 1 mg/kg every other day for 10 times. Tumor growth was recorded with the use of calipers, by measuring the long and short diameters of the tumor. Tumor volumes were measured with a caliper and the formula (0.5×length×width^2) was applied to determine tumor growth kinetics.\nThe antitumor activity of IMO compounds in a murine colon carcinoma CT26.CL25 model was evaluated. BALB/c mice bearing CT26.CL25 subcutaneous solid tumors were treated with 1 mg/kg IMO compounds by peritumoral administration every other day for 10 times starting on day 6 following tumor inoculation."}, "[3]": {"test_system": "B16.F0 melanoma", "test": "B16.F0 melanoma in wt, IL-6 ko and IL-12 ko C57BL/6 mice", "type": "in vivo, mouse", "conditions": "FIG. 23", "excerpt": "Female BALB/c (H-2^d), C57BL/6, and IL-6 and IL-12 knockout (ko) (both ko on a C57BL/6 background) mice 5-8 weeks of age, were purchased from Jackson Laboratory (Bar Harbor, Me.). CT26.WT (ATCC, Rockville, Md.) is a carcinogen-induced BALB/c undifferentiated colon carcinoma. CT26.CL25 (ATCC, Rockville, Md.) is a subclone of CT26.WT that has been transduced with Escherichia coli β-gal gene. 4T1 is a mammary adenocarcinoma cell line in BALB/c mice. B16.F0 is a C57BL/6 derived melanoma (ATCC). CT26.WT and 4T1 cells were cultured in RPMI 1640, 10% heat-inactivated fetal bovine serum (FBS, Atlas Biologicals, Fort Colins, Colo.), 2 mM L-glutamine, 100 μg/ml streptomycin, 100 U/ml penicillin (Mediatech, Va.). CT26.CL25 is maintained in the same medium plus 400 μg/ml G418 sulfate (Life Technologies, Grand Island, N.Y.). B 16.F0 cells were grown in DMEM containing 10% FBS and antibiotics.\nFor peritoneal disseminated tumor model, 3×10^5 CT26.WT or CT26.CL25 cells and 5×10^4 B16.F0 cells were injected i.p to BALB/c or C57BL/6 mice respectively. IMO compounds or non-CpG DNA (2.5 mg/kg) were administrated i.p. twice per week starting on day 1 for a total of 5 times. Mice were checked daily for tumor growth and for survival. Each dose group had 6 to 10 mice."}, "[4]": {"test": "In vitro cytokine induction profiles of IMO compounds (FIG. 16)", "type": "cell-based"}, "[5]": {"test_system": "4T1 breast tumor", "test": "4T1 breast tumor in BALB/c mice, combination with doxorubicin", "type": "in vivo, mouse", "conditions": "IMO 2 1 mg/kg peritumoral, doxorubicin 30 mg/kg i.p; FIG. 24A", "description": "For the 4T1 tumor models, 5×10^5 cells/mouse in. 100 μl PBS were implanted into BALB/c mice in the lower right flank. On day 5 when the average tumor size reached 50 mm^2, the mice were given i.p injections of 30 mg/kg doxorubicin (Bedford lab, Bedford, Ohio) for three times on days 5, 6 and 7. IMO 2 (1 mg/kg) dissolved in 100 μl PBS was administrated by peritumoral injection at twice a week interval for a total of six times."}, "[6]": {"test_system": "CT26.CL25 tumor cells", "test": "Adoptive transfer of splenocytes, CT26.CL25 challenge", "type": "in vivo, mouse", "conditions": "FIG. 21A", "excerpt": "(§3) To study adoptive immune cell transfer, BALB/c mice were adoptively i.p. transferred with 5×10^6 of syngeneic splenocytes either from naïve BALB/c mice or from IMO treated long term survivors bearing CT26.WT or CT26.CL25, the mice (5/group) were then cross challenged i.p. with 3×10^5 CT26.WT, CT26.CL25 or 4T1 cells on day 3."}, "[7]": {"test_system": "CD69+ and CD86+ cells", "test": "Activation of CD69+ and CD86+ cells in peripheral blood", "type": "in vivo, mouse", "conditions": "docetaxel 30 mg/kg days 1 and 3, IMO 2 5 mg/kg days 1, 3, 5, 7; FIG. 24C"}, "[8]": {"test_system": "Her-2 overexpressing human breast tumors (BT474)", "test": "Example 23 tumor model, Rituxan and/or IMO 2", "type": "in vivo, mouse", "conditions": "Rituxan days 5, 7, 9, 11; IMO 2 days 5, 7, 9, 11, 13; FIG. 30", "description": "Nude mice bearing subcutaneously implanted Her-2 overexpressing human breast tumors (BT474). Tumor bearing mice were treated by intraperitoneal injections of Rituxan on days 5, 7, 9 and 11 and/or IMO 2 on days 5, 7, 9, 11 and 13."}, "[9]": {"test_system": "CT26.WT and CT26.CL25 tumors", "test": "Rechallenge of long term survivors with CT26.WT or CT26.CL25", "type": "in vivo, mouse", "excerpt": "(§4) Long term survivors (n=5) of IMO compound treated mice with CT26.WT or CT26.CL25 peritoneal tumor were rechallenged i.p. or i.v. with 5×10^5 of the parental tumor cells without any further treatment. To evaluate the specificity of the IMO induced antitumor response in tumor bearing mice, these long term survivors (n=5) were also rechallenged with syngeneic, non-organ-related mammary tumor 4T1 (5×10^5). For i.v. rechallenged groups, mice were sacrificed on day 13, lungs were harvested and lung metastases were counted."}, "[10]": {"test_system": "CT26.CL25", "test": "Peritoneal disseminated CT26.CL25 tumor, survival", "type": "in vivo, mouse", "conditions": "peritoneal administration, 1 mg/kg; FIG. 17C", "description": "as §1"}, "[11]": {"test_system": "4T1 tumor cells", "test": "Adoptive transfer of splenocytes, 4T1 challenge", "type": "in vivo, mouse", "conditions": "FIG. 21B", "excerpt": "as §3"}, "[12]": {"test_system": "B16.F0 melanoma", "test": "Subcutaneous B16.F0 melanoma in C57BL/6 mice", "type": "in vivo, mouse", "conditions": "1 mg/kg peritumoral every other day for 10 times from day 8; FIG. 22A", "description": "as §2\nIMO 2 was further tested for its antitumor activity in mice bearing B 16.F0 murine melanoma. C57BL/6 mice bearing B16.F0 melanoma were treated with 1 mg/kg IMO 2 by peritumoral administration every other day for 10 times starting on day 8 following tumor inoculation."}, "[13]": {"test": "Total serum IgG1 and IgG2a in B16.F0 tumor bearing C57BL/6 mice", "type": "in vivo, mouse", "conditions": "compared with control non-CpG DNA", "procedure": "For the analysis of serum antibodies, 96 well plates were incubated at room temperature for 3 hours with β-gal protein (Calbiochem Novabiochem, Pasadena, Calif.) at 2 μg/ml in phosphate buffered saline (PBS). The solid phase was incubated overnight at 4° C. with normal mouse serum (NMS) or antiserum, or β-gal specific monoclonal Ab (Calbiochem Novabiochem, Pasadena, Calif.) followed by an incubation with horseradish peroxidase (HRP)-conjugated antibodies specific for mouse IgG (H+L). For isotype analysis, HRP-labelled goat anti-mouse IgG1 and IgG2a (Southern Biotechnology, Birmingham, Ala.) were used. The binding of antibodies was measured as absorbance at 405 nm after reaction of the immune complexes with ABTS substrate (Zymed, San Francisco, Calif.)."}, "[14]": {"test_system": "Her-2 overexpressing human breast tumors (BT474)", "test": "Her-2 overexpressing human breast tumors (BT474) in nude mice, combination with Herceptin", "type": "in vivo, mouse", "conditions": "compared to the PBS control group; Herceptin 10 mg/kg i.p, IMO 1 mg/kg peritumoral, twice a week for 6 weeks; FIG. 29"}, "[15]": {"test_system": "4T1 mammary carcinoma", "test": "Rechallenge of long term survivors with 4T1", "type": "in vivo, mouse", "conditions": "FIG. 20C", "excerpt": "as §4"}, "[16]": {"test_system": "BALB/c mice", "test": "In vivo serum cytokine induction", "design": "species or system mouse", "description": "To assess serum cytokine levels, BALB/c mice (n=5) were injected intraperitoneally (i.p), subcutaneously (s.c) or intramuscularly (i.m) with IMO compounds at 10 mg/kg (single dose). Sera was collected by retro-orbital bleeding at 4 hrs of IMO administration and determined IL-112 and IL-6 by sandwich ELISA. Cytokine antibodies and standards were purchased from PharMingen (San Diego, Calif.).\nTo evaluate the immunopharmacological effects in vivo, IMO compounds, CpG immunomers, and non-CpG oligos were administered to BALB/c mice i.p, s.c or i.m at a dose of 10 mg/kg and their serum was evaluated for IL-12 and IL-6 after 4 hrs."}, "[17]": {"conditions": "Intramuscular (i.m), 10 mg/kg, 4 hrs"}, "[18]": {"conditions": "Intraperitoneal (i.p), 10 mg/kg, 4 hrs"}, "[19]": {"conditions": "Subcutaneous (s.c), 10 mg/kg, 4 hrs"}}}
{"substance": "IMO 2: IMO compound of FIG. 15 (SEQ ID NO 24) containing a synthetic CpR motif, mouse-specific immunostimulatory motif (DNA TCTGACNTTCT; synthetic CpR motif, chemistry not fully specified)", "values": [{"measurement": "Mice survival", "setting": "[1]", "value": "marked increase of mice survival"}, {"measurement": "Average tumor growth inhibition", "setting": "[2]", "value": 85, "unit": "%"}, {"measurement": "Tumor growth", "setting": "[3]; IL-6 ko C57BL/6 mice", "value": "significant reduction in tumor growth"}, {"measurement": "Tumor growth", "setting": "[3]; wt C57BL/6 mice", "value": "significant reduction in tumor growth"}, {"measurement": "IL-6 production in vitro", "setting": "[4]", "value": "lower IL-6 production"}, {"measurement": "IL-12 secretion in vitro", "setting": "[4]", "value": "strong IL-12 secretion"}, {"measurement": "Inhibition of 4T1 tumor growth", "setting": "[5]", "value": "strong inhibition"}, {"measurement": "Protection by transferred splenocytes against CT26.CL25 challenge", "setting": "[6]", "value": "protective against a lethal tumor challenge"}, {"measurement": "Percentage of CD69+ and CD86+ cells", "setting": "[7]", "value": "significant increase in the percentage of CD69+ and CD86+cells"}, {"measurement": "Tumor growth", "setting": "[8]", "value": "significantly inhibited"}, {"measurement": "Rejection of pulmonary metastases after i.v. inoculation", "setting": "[9]; data not shown", "value": "able to reject pulmonary metastases of the same tumor"}, {"measurement": "Protection against i.p rechallenge", "setting": "[9]; mice cleared of CT26.CL25 peritoneal tumor, FIGS. 20A and B", "value": "rejected i.p rechallenge with CT26.WT and CT26.CL25 tumors"}, {"measurement": "Mice survival", "setting": "[10]", "value": "marked increase of mice survival"}, {"measurement": "Protection by transferred splenocytes against 4T1 challenge", "setting": "[11]", "value": "did not extend to 4T1 tumor cell challenge"}, {"measurement": "Tumor growth inhibition", "setting": "[12]", "value": 71, "unit": "%"}, {"measurement": "Total IgG1 levels", "setting": "[13]; FIG. 22B", "value": "decrease or no change"}, {"measurement": "Total circulating serum IgG2a", "setting": "[13]; FIG. 22C", "value": "significant increase"}, {"measurement": "Tumor growth inhibition", "setting": "[14]", "value": 65, "unit": "%"}, {"measurement": "Protection against 4T1 mammary carcinoma challenge", "setting": "[15]", "value": "not protected"}, {"measurement": "Serum IL-6 induction", "setting": "[16]; 10 mg/kg, all three routes of administration, 4 hrs", "value": "significantly lower serum IL-6"}, {"measurement": "Serum IL-12 secretion in mice", "setting": "[16]; 4 hr after administration, FIG. 25B", "value": "induced IL-12 secretion"}, {"measurement": "IL-6 (serum)", "setting": "[16]; [17]", "value": "1.2 ± 0.1", "unit": "ng/mL"}, {"measurement": "IL-12 (serum)", "setting": "[16]; [17]", "value": "87.9 ± 3.2", "unit": "ng/mL"}, {"measurement": "IL-6 (serum)", "setting": "[16]; [18]", "value": "2.5 ± 0.2", "unit": "ng/mL"}, {"measurement": "IL-12 (serum)", "setting": "[16]; [18]", "value": "51.7 ± 0.9", "unit": "ng/mL"}, {"measurement": "IL-6 (serum)", "setting": "[16]; [19]", "value": "2.3 ± 0.4", "unit": "ng/mL"}, {"measurement": "IL-12 (serum)", "setting": "[16]; [19]", "value": "136.9 ± 17", "unit": "ng/mL"}]}
